Source: article PMC7269337, “Spiro-containing derivatives show antiparasitic activity against Trypanosoma brucei through inhibition of the trypanothione reductase enzyme” (PLoS Neglected Tropical Diseases, 2020)
Values after ≈ are worked out from the molar mass of the structure shown. Where two headings read alike, the source gives them in different places.

How the values were obtained:
[1] = biological target: T1, TbTR (Trypanosoma brucei brucei, UniProt P39051); assay: TS2 competition assay (TbTR luminescent assay); format: biochemical; conditions: 5 or 25 μM compound
T1 construct: the gene coding for the enzyme (aa 1–492) was codon optimized for the expression in E.coli; made in house; host or cells: E. coli BL21(DE3)
T1 sequence (P39051 whole entry, the tested form may be a part): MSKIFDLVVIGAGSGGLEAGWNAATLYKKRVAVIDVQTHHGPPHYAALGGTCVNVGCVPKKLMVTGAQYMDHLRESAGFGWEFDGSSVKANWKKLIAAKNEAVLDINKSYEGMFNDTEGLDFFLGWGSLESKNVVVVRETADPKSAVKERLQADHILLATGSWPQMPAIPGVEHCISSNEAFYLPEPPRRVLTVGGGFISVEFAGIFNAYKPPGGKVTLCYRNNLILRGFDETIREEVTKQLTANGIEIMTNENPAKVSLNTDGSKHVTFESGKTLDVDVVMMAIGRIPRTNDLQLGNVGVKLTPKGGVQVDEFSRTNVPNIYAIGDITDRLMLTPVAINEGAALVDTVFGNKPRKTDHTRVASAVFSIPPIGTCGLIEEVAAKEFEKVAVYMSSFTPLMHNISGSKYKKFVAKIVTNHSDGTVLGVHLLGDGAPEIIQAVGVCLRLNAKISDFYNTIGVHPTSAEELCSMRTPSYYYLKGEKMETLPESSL
Experimental: Competition experiments were performed at two different compound concentrations (5 μM and 25 μM) by TbTR luminescent assay. The apparent Km values for TS2 in presence of 20 μM NADPH were calculated using 1 nM TR after 10 min incubation. […] The luminescent signal was measured using the EnVision plate reader (PerkinElmer, USA). IC50, Vmax, and Km values were calculated using Prism software (GraphPad, San Diego, CA).

[2] = biological target: T1, TbTR; assay: TbTR DTNB absorbance assay; format: biochemical
Experimental: (§1) Compounds from 10 mM stock solutions were transferred to assay plates by acoustic transfer (EDC Biosystems, Milmont, CA). The TbTR luminescent assay was performed in 384-well white plate (Greiner Bio One, Frickenhausen, Germany). The following components were added to the plates to a final volume of 30 μL: 0.1 nM TR, 20 μM NADPH, 10 μM TS2 in 50 mM HEPES (pH 7.4), 40 mM NaCl, 0.01% BSA. After 60 min of incubation at room temperature the residual amount of NADPH was measured by addition of an equal volume of NADPH-Glo as per the manufacturer’s protocol and the luminescent signal was acquired by an EnVision plate reader (PerkinElmer, Waltham, MA). […] After 10 minutes of incubation at room temperature the absorbance signal (412 nm) was detected using the Safire2 plate reader (Tecan, Switzerland). […] Results were analyzed using Prism software (GraphPad, San Diego, CA) and Vortex (Dotmatics, Bioshops Stortford, UK). […]
(§2) L. infantum TR was cloned and purified as previously described.[1] […] After 60 min of incubation at room temperature, an equal volume of NADPH-Glo reagent was added and the luminescent signal was acquired by an EnVision plate reader […]
(§3) after 30 minute (Figure S1) according to the reagent data sheet. […] The absorbance signal (412 nm) was acquired 15 minutes post incubation at room temperature using the plate reader (Safire2, Tecan, Switzerland). […]

[3] = biological target: T1, TbTR; assay: SPR binding assay on immobilized TbTR
Experimental: Surface Plasmon resonance (SPR) interaction analysis were performed using a Biacore T200 (GE Healthcare, Uppsala, Sweden). TbTR was immobilized on a CM4 chip by amine coupling according to manufacturer’s instructions (Amine Coupling Kit, GE Healthcare, Uppsala, Sweden). Briefly, the surface of the sensor chip was activated for 7 minutes using a mixture of 0.1 M N-hydroxy succinimide (NHS) and 0.4 M N-ethyl-N’-[3-dimethyl-aminopropyl] carbodiimide (EDC) then 30 μg/ml of […] in 10 mM sodium acetate (pH 4.5) was injected for 360 s at 10 μl/min, finally residual activated groups on the surface were blocked by a 7 min injection of 1 M ethanolamine (pH 8.5). A reference channel for background subtraction was prepared by activation with EDC/NHS mixture (0.1 M/0.4 M as per ligand immobilization), followed by blocking with 1 M ethanolamine. The binding of the selected hit to the immobilized ligand was evaluated by a multi-cycle kinetic procedure in PBS-P (GE Healthcare Lifescience) supplemented with 2% DMSO (Sigma Aldrich). The analyte was injected for 60 s at 50 μl/min until equilibrium and dissociation monitored for 600 s. A standard curve of DMSO was included for solvent correction.
Biomolecular binding events were reported as changes of resonance units (RUs) over time. The data were analyzed by the Biacore T200 evaluation software. The sensorgrams were obtained, by subtracting the signals of the reference channel to those of the TbTR-immobilized one, and corrected for DMSO interference using the DMSO standard curve. The binding affinity was evaluated from kinetic parameters (koff/kon) calculated according to a heterogeneous ligand binding model.

[4] = system: endogenous TbTR activity in T. brucei lysate; assay: T. brucei lysate thiol formation assay; format: biochemical, Trypanosoma brucei; conditions: 200 μM NADPH, 50 μM TS2, 100 μM DTNB, 30 min, absorbance 412 nm; read-out: IC50, inhibition of endogenous TbTR activity in T. brucei lysate
Experimental: T. brucei parasites were grown on IMDM medium (Iscove’s Modified Dulbecco’s Medium) supplied with 3 gr/L sodium bicarbonate, 136 mg/L hypoxanthine, 39 mg/L thymidine, 28.2 mg/L bathocuprione sulfonic acid, 0.5 mM cysteine, 0.001% β-mercaptoethanol and 10% heat-inactivated Calf serum. 1.5 x 10^6 compound treated parasite per well were lysed using 1 mM EDTA, 40 mM Hepes pH 7.5, 50 mM Tris-HCl pH 7.5, 2% Triton-X100 and protease inhibitors cocktail (Sigma). 200 μM NADPH, 50 μM TS2, 100 μM DTNB were added in each well to trigger the TbTR activity. After 30 min incubation the absorbance signal (412 nm) was detected using the Safire2 plate reader (Tecan, Switzerland).

[5] = biological target: T2, TbTR (Trypanosoma brucei trypanothione reductase) (Trypanosoma brucei brucei, UniProt P39051); assay: TbTR luminescent (NADPH-Glo) enzyme assay; format: biochemical
T2 construct: the gene coding for the enzyme (aa 1–492) was codon optimized for the expression in E.coli; made in house; host or cells: E. coli BL21(DE3)
T2 sequence (P39051 whole entry, the tested form may be a part): as above
Experimental: Compounds from 10 mM stock solutions were transferred to assay plates by acoustic transfer (EDC Biosystems, Milmont, CA). The TbTR luminescent assay was performed in 384-well white plate (Greiner Bio One, Frickenhausen, Germany). The following components were added to the plates to a final volume of 30 μL: 0.1 nM TR, 20 μM NADPH, 10 μM TS2 in 50 mM HEPES (pH 7.4), 40 mM NaCl, 0.01% BSA. After 60 min of incubation at room temperature the residual amount of NADPH was measured by addition of an equal volume of NADPH-Glo as per the manufacturer’s protocol and the luminescent signal was acquired by an EnVision plate reader (PerkinElmer, Waltham, MA). The DTNB assay was performed in a final volume of 50 μl by addition of 2 nM TR, 100 μM NADPH, 4 μM TS2 and 200 μM DTNB in 40 mM HEPES (pH 7.4), 1 mM EDTA, 0.01% BSA and 0.05% Tween-20. After 10 minutes of incubation at room temperature the absorbance signal (412 nm) was detected using the Safire2 plate reader (Tecan, Switzerland). The human glutathione reductase (hGR) activity assay was carried out as described by Turcano et al.[23]. Results were analyzed using Prism software (GraphPad, San Diego, CA) and Vortex (Dotmatics, Bioshops Stortford, UK). Dose-response curves were fitted by four-parameter logistic regression.
The TbTR enzyme enzyme was produced in bacteria, purified as described in materials and methods and used to develop an in vitro enzyme assay (Fig 1A). To measure TbTR activity, a luminescent assay was optimized starting from a design that we previously described. First we determined the linearity range of the NADPH detection signal via NADPH-Glo kit that was determined to be 50 μM (Fig 1B). The Km (apparent) value for TS2 was calculated using 1 nM TR in the presence of serial dilutions of TS2 and a fixed concentration of 40 μM NADPH. The luminescence signal was detected in the first 10 min of reaction. NADPH depletion, calculated using the NADPH standard curve (Fig 1B), allowed the determination of the apparent Km values by the Michaelis-Menten kinetic (Fig 1C). The Km for TS2 was calculated to be 4.0 ± 0.7 μM. To further optimize the assay, a time course experiment was carried out. Different concentrations of the TbTR enzyme, ranging from 0.025 to 0.2 nM, were used, while the TS2 concentration was fixed near the Km value (5 μM) and the NADPH concentration was 20 μM that falls within the linearity range observed for the NADPH standard curve. 0.1 nM TbTR at and 60 min of incubation were judged to be an optimal compromise for preserving the reaction linearity along with a good signal to background ratio (Fig 1D) and allowing a suitable time for the screening operations. The final conditions used for the screening were: 0.1 nM TbTR, 5 μM TS2, 20 μM NADPH with the incubation time of the reaction being 60 minutes.

[6] = biological target: T3, Leishmania infantum TR (LiTR) (Leishmania infantum, UniProt A4HSF7); assay: LiTR luminescent (NADPH-Glo) enzyme assay; format: biochemical
T3 construct: made in house
T3 sequence (A4HSF7 entry or part of it): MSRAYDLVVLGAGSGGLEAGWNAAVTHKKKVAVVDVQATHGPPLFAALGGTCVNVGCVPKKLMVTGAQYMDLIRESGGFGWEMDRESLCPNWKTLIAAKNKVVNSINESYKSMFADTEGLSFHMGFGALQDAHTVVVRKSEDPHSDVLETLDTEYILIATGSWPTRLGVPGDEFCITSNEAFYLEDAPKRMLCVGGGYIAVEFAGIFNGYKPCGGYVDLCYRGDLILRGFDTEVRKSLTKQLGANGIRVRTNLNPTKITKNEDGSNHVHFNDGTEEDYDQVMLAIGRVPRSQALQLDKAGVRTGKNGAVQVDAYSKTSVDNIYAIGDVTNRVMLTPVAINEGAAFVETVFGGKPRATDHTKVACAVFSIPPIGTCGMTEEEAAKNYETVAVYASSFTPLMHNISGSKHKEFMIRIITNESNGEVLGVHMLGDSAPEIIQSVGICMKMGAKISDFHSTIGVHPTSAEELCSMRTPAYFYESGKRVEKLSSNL
From the text: S5 Fig. inhibition of Leismania infantum trypanothione reductase (LiTR) by Compound 1. Each experimental point is the average of three replicates.
The following method was used to determine the inhibition of the LiTR activity:
L. infantum TR was cloned and purified as previously described.[1] Bovine serum albumin (BSA), NADPH, auranofin, hGR, oxidized glutathione (GSSG) and DTNB were purchased from Sigma-Aldrich (St. Louis, MO); oxidized trypanothione (TS2) was purchased from Bachem (Bubendorf, Switzerland); the NADPH-Glo kit was purchased from Promega (Madison, WI, U.S.A.). Compounds, dissolved in DMSO, were transferred to 384-well white plates (Greiner Bio One, Frickenhausen, Germany) using the acoustic droplet ejection technology (ATS-100, EDC Biosystems, U.S.A.) to reach the desired final concentration. […] After 60 min of incubation at room temperature, an equal volume of NADPH-Glo reagent was added and the luminescent signal was acquired by an EnVision plate reader […]
as §3, with “Switzerland). Results were analyzed using Prism software (GraphPad, San Diego, CA, U.S.A.) and Vortex (Dotmatics, Bioshops Stortford, UK).” for “Switzerland).”

[7] = physchem; format: physicochemical; conditions: pH 7.4, aqueous buffer
Experimental: The solubility testing was carried out as previously reported.

[8] = system: T. brucei parasites; assay: T. brucei growth inhibition assay (CellTiter-Glo); format: cell-based; conditions: Trypanosoma brucei, 24 h treatment, read-out: IC50, anti-proliferative activity on T. brucei culture
Experimental: The anti-proliferative effect of testing compounds on T. brucei in vitro cultures was carried out by incubating compounds with 1.5 × 10^3 parasite per well followed by 24 incubation at 37°C and 5% CO2. The parasite viability was measured by CellTiter-Glo according to the manufacturer's instructions.

[9] = biological target: T4, human glutathione reductase (hGR) (Homo sapiens, UniProt P00390); assay: human glutathione reductase (hGR) activity assay; format: biochemical
T4 construct: purchased Sigma-Aldrich
T4 sequence (P00390 44-522): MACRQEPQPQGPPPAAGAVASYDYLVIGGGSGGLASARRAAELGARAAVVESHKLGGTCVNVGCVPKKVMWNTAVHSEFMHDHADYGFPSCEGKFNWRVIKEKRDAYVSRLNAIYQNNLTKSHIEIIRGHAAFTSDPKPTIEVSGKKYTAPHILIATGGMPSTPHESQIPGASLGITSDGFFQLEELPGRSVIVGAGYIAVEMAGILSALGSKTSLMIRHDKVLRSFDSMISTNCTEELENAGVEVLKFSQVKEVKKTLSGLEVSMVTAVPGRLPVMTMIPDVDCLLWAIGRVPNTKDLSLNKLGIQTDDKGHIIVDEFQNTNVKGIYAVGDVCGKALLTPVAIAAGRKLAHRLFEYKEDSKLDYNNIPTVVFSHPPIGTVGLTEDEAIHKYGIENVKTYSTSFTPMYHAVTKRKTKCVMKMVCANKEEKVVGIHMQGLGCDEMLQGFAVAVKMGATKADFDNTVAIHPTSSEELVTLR
Experimental: as §1, §2, §3

[10] = TbTR assay IC50, luminescence assay, n=4, dose-response from 85 μM

## CN(CCCN1CN(c2ccccc2)C2(CCN(CC[C@@H]3CC[C@H]4C[C@@H]3C4(C)C)CC2)C1=O)CC1(O)CCN(C(=N)N)CC1 [Compound 1, 4-(((3-(8-(2-((1S,2S,5S)-6,6-dimethylbicyclo[3.1.1]heptan-2-yl)ethyl)-4-oxo-1-phenyl-1,3,8-triazaspiro[4.5]decan-3-yl)propyl)(methyl)amino)methyl)-4-hydroxypiperidine-1-carboximidamide]
[1]
  change in calculated Vmax: No changes
  mode of inhibition versus TS2: competitive with TS2
[2]
  IC50: 0.966 ± 0.068 µM
[3]
  Kd: 10.3 ± 2.9 µM
  koff: 0.035 ± 0.014 s⁻¹
[3]; SPR, 0.3125 to 20 μM
  binding to TbTR (reversibility): reversible binding
[4]
  IC50: 5.7 ± 0.6 µM
[5]; TbTR IC50, luminescence assay
  IC50: 3.5 ± 2.2 µM
[5]; [10]
  IC50: 3.5 ± 2.19 µM
[6]
  IC50: 3.8 ± 0.6 µM
[7]
  solubility: 185 µM (≈ 113 µg/mL)
[8]
  IC50: 2.2 ± 2.4 µM
[9]
  IC50: > 50 µM
  activity against human glutathione reductase (hGR): no activity was detected

## O=C(CCCN1CCC2(CC1)C(=O)NCN2c1ccccc1)c1ccc(F)cc1 [Compound 5, Spiperone, reference compound]
[5]; luminescence assay, n=4, dose-response from 85 μM, read-out: TbTR assay IC50
  IC50: > 85 µM

## O=C(CCN1CN(c2ccccc2)C2(CCNCC2)C1=O)NC(c1ccccc1)c1ccccc1 [Compound 18]
[5]; [10]
  IC50: > 85 µM
